Measured values taken from publication PMC11899342, “Novel Triazeneindole Antibiotics: Synthesis and Hit-to-Lead Optimization” (International Journal of Molecular Sciences, 2025).
Converted amounts (≈) assume the structure as drawn. Like-named read-outs stand apart in the source and are kept apart here.

How the values were obtained:
MRSA = assay: Selectivity index (average IC50 on eukaryotic cells / average MIC on MRSA); assay type: cell-based, Staphylococcus aureus; settings: average IC50 on eukaryotic cells divided by average MIC on MRSA
Procedure: The selectivity index was calculated for each compound as the average IC50 on eukaryotic cells divided by the average MIC on MRSA (Table 2).

MRSA clinical isolates = assay: MIC by broth microdilution against multidrug-resistant MRSA clinical isolates; assay type: cell-based, Staphylococcus aureus; settings: for MIC Range Against 8 MRSA Strains: 8 multidrug-resistant MRSA clinical isolates, tested 0.125-1 mg/L; for MIC: Staphylococcus aureus, MRSA
Procedure: Clinical MRSA isolates with multidrug resistance were obtained from the collection of the Research Institute of Antimicrobial Chemotherapy, Smolensk State Medical Academy.
The MICs were determined using a broth microdilution method according to [42]. Briefly, serial dilutions of the tested compounds in 50 µL of Mueller Hinton broth (BD) were prepared in 96-well microplates. The antibiotics vancomycin and linezolid (Sigma-Aldrich, St. Louis, MO, USA) were used as a positive control. Bacterial suspensions of the tested MRSA strains were prepared in the Mueller Hinton broth (BD) with a concentration 1 × 10^6 CFU/mL, and then 50 µL aliquots were added to the prepared microplates. The final concentrations of the antibiotics in the wells were 1, 0.5, 0.25, and 0.125 mg/L, for the tested compounds, and 2 mg/L for vancomycin and linezolid. Negative control (lack of bacterial cells) and growth control (lack of compound) wells were included in all plates. The microplates were incubated at 37 °C for 18 h. The growth was assessed visually after incubation, and the MIC was assumed as the lowest compound concentration at which a noticeable growth of the microorganisms was inhibited (no visible growth). All experiments were conducted in triplicate.

[1] = test system: human embryonic fibroblasts (HEFs); assay: MTT cytotoxicity on human embryonic fibroblasts; assay type: cell-based; settings: Homo sapiens, Fibroblast, 24 h, ND = non-toxic in tested concentrations (up to 50 mg/L)
Procedure: (§1) The primary screening of 22 substances was performed on human embryonic fibroblasts (HEFs). […] The HepG2 cell line was obtained from the American Type Culture Collection (ATCC cat. # HB-8065). The primary HEF cells (normal human embryonic fibroblasts) were derived from human embryonic stem cells. The cells were cultured in DMEM/F12 (1:1) medium containing 10% fetal bovine serum (Invitrogen, Carlsbad, CA, USA) at 37 °C and 5% CO2, according to standard mammalian tissue culture protocols and sterile technique. […] The incubation time with the substance was 24 h for all substances and cell lines. Cell detachment by trypsin, centrifugation, and counting in a hemocytometer were performed 16 h before the addition of the substance. For correct counting of the HepG2 cells, the cell suspension was passed through a syringe needle to get rid of cell aggregates. The cells were placed in the wells of a 96-well plate. The number of cells was selected according to the properties of the cell line and the final optical density in the experiment. Fibroblasts and hepatocytes were used in the amount of 10 thousand cells per well in 100 μL of DMEM/F12 medium supplemented with 10% fetal bovine serum. The substances were added to 100 µL of medium in the wells so that the final concentrations were 50, 25, 12.5, 6.25, 3.125, and 1.62 mg/L. The final well volume was 200 µL. The medium containing fetal bovine serum, without added substances, was used as a negative control. After 24 h, excessive amounts of medium were discarded. A total of 30 µL of MTT solution (5 mg/mL in PBS) was added to each well. After the precipitation of formazan crystals (3 h incubation), they were dissolved using 100 μL of dimethyl sulfoxide. The optical density (OD) was measured at 570 nm using a microplate reader (Eppendorf). For every condition, the cell viabilities were assessed in at least three independent experiments for every cell culture. Cell survival was calculated using the following formula:(OD of treated cells − OD blank)/(OD of control cells − OD blank) × 100%, where OD blank represents the OD values in wells without cells but with the addition of the MTT and DMSO solutions. The results were presented in the form of cytotoxicity curves, and the graphs were also plotted in a Microsoft Excel program; the calculation of the IC50 half-maximal inhibition concentration values was performed in a GraphPad Prism 6.0 (GraphPad Software Inc., San Diego, CA, USA) program, based on the equations of the cytotoxicity curves.

[2] = Solubility in water by HPLC; assay type: physicochemical; settings: water, kinetic from dmso stock
Procedure: The solubility of the compounds in water was assessed using HPLC analysis. Two 1.0 mg portions of the test compounds were dissolved in 10 μL of dimethyl sulfoxide; 1.0 mL of acetonitrile was added to one sample (standard), and 1.0 mL of water was added to the second sample (tested sample). Both vials were mixed in a shaker for 5 min, then centrifuged at 10,000 rpm for 5 min. The supernatants were collected and analyzed using Agilent 1290 Infinity (Agilent Technologies, Santa Clara, CA, USA) with a YMC-Triart C18 50 × 2.0 mm, 1.9 μm column. The concentration of the test compound in water was determined by comparing the peak areas of the standard (concentration 1.0 mg/mL) and the tested sample.

[3] = test system: HepG2 human liver carcinoma cells; assay: MTT cytotoxicity (hepatotoxicity) on HepG2; assay type: cell-based; settings: Homo sapiens, HepG2, 24 h
Procedure: as §1

Caco-2 cells = assay: Caco-2 cell monolayer permeability; assay type: in vitro ADME, human
Procedure: The MultiScreen Caco-2 (ATCC cat. # HTB-37) test system (Millipore, St. Charles, MO, USA) was used to study the transport through a cell monolayer, according to the manufacturer’s instructions. Briefly, a study of transport from the apical membrane to the basolateral (A-B) area and in the opposite direction (B-A) was carried out on a 21-day culture of Caco-2 at a 1 µM concentration of the tested compound for 2 h. Monolayer integrity was verified by measuring electrical resistance (TEER) using a Millicell-ERS instrument. A TEER value of at least 3 KOhm/well was determined to be acceptable.

[4] = Figure 6, MRSA strain 2, read-out: MIC against 8 MRSA strains
[5] = Figure 6, MRSA strain 7, read-out: MIC against 8 MRSA strains
[6] = Figure 6, MRSA strain 8, read-out: MIC against 8 MRSA strains
[7] = Figure 6, MRSA strain 9, read-out: MIC against 8 MRSA strains
[8] = Figure 6, MRSA strain 13, read-out: MIC against 8 MRSA strains
[9] = Figure 6, MRSA strain 21, read-out: MIC against 8 MRSA strains
[10] = Figure 6, MRSA strain 48, read-out: MIC against 8 MRSA strains
[11] = Figure 6, MRSA strain 50, read-out: MIC against 8 MRSA strains
[12] = read-out: Solubility in water, mass concentration
[13] = read-out: Solubility in water, molar concentration

Structure (SMILES)	Selectivity Index (MRSA)	MIC Range Against 8 MRSA Strains (MRSA clinical isolates)	MIC (MRSA clinical isolates; [4])	MIC (MRSA clinical isolates; [5])	MIC (MRSA clinical isolates; [6])	MIC (MRSA clinical isolates; [7])	MIC (MRSA clinical isolates; [8])	MIC (MRSA clinical isolates; [9])	MIC (MRSA clinical isolates; [10])	MIC (MRSA clinical isolates; [11])	IC50 [1]	solubility at 5 min [2, 12]	solubility at 5 min [2, 13]	IC50 [3]	MIC (MRSA clinical isolates; 8 MRSA strains, read-out: lowest MIC values against most tested strains)	Papp A-B (Caco-2 cells; Caco-2, 1 µM, 2 h)	Mass balance (Caco-2 cells; Caco-2, first value: A-B / apical)
CCOC(=O)c1[nH]c2cc(F)ccc2c1/N=N/N1CCN(C)CC1 [BX-SI035, Ethyl ester ethyl (E)-6-fluoro-3-((4-methylpiperazin-1-yl)diazenyl)-1H-indole-2-carboxylate]	41	0.5 µg/mL (≈ 1.5 µM)	0.5 µg/mL (≈ 1.5 µM)	0.5 µg/mL (≈ 1.5 µM)	0.5 µg/mL (≈ 1.5 µM)	0.5 µg/mL (≈ 1.5 µM)	0.5 µg/mL (≈ 1.5 µM)	0.5 µg/mL (≈ 1.5 µM)	0.5 µg/mL (≈ 1.5 µM)	0.5 µg/mL (≈ 1.5 µM)	20 µg/mL (≈ 60 µM)	11.7 µg/mL	350 µM	21 µg/mL (≈ 63 µM)			
CCOC(=O)c1[nH]c2cc(F)ccc2c1/N=N/N1CCC(C)CC1 [BX-SI045, Ethyl (E)-6-fluoro-3-((4-methylpiperidin-1-yl)diazenyl)-1H-indole-2-carboxylate]	74	0.25 to 0.5 µg/mL	0.5 µg/mL (≈ 1.5 µM)	0.5 µg/mL (≈ 1.5 µM)	0.25 µg/mL (≈ 0.752 µM)	0.25 µg/mL (≈ 0.752 µM)	0.5 µg/mL (≈ 1.5 µM)	0.25 µg/mL (≈ 0.752 µM)	0.25 µg/mL (≈ 0.752 µM)	0.25 µg/mL (≈ 0.752 µM)	29 µg/mL (≈ 87.2 µM)	2.77 µg/mL	10 µM	22 µg/mL (≈ 66.2 µM)	0.25 µg/mL (≈ 0.752 µM)		
CCOC(=O)c1[nH]c2cc(F)ccc2c1/N=N/N1CCOCC1 [BX-SI040, Ethyl (E)-6-fluoro-3-(morpholinodiazenyl)-1H-indole-2-carboxylate]		1 µg/mL (≈ 3.12 µM)									12 µg/mL (≈ 37.5 µM)	4.48 µg/mL	14 µM				
CCOC(=O)c1[nH]c2ncccc2c1/N=N/N1CCN(C)CC1 [BX-SI057, Ethyl (E)-3-((4-methylpiperazin-1-yl)diazenyl)-1H-pyrrolo[2,3-b]pyridine-2-carboxylate]		0.5 to 1 µg/mL									3 µg/mL (≈ 9.48 µM)	16.7 µg/mL	53 µM				
CCOC(=O)c1[nH]c2ncccc2c1/N=N/N1CCC(C)CC1 [BX-SI058, Ethyl (E)-3-((4-methylpiperidin-1-yl)diazenyl)-1H-pyrrolo[2,3-b]pyridine-2-carboxylate]		1 µg/mL (≈ 3.17 µM)									12 µg/mL (≈ 38 µM)	0.399 µg/mL	1 µM				
CCOC(=O)c1[nH]c2ccccc2c1/N=N/N(C)CCN(C)C [BX-SI010, Ethyl (E)-3-(3-(2-(dimethylamino)ethyl)-3-methyltriaz-1-en-1-yl)-1H-indole-2-carboxylate]		1 µg/mL (≈ 3.15 µM)									19 µg/mL (≈ 59.9 µM)	475 µg/mL	1490 µM				
CC(C)NCC(O)COc1cccc2ccccc12 (centres unmarked) [Propranolol, propranolol]																44.6 10^-6 sm/s	91.7%
